# In patent US9328130B2, “Method of treating organism by biologically active compounds specifically delivered into mitochondria, pharmaceutical composition required for the use of the method and a compound applicable for this purpose” (MITOTECH S.A., priority 2005, dated 2016):
# How the values were obtained:
# Hela cells [1] = assay: Morphology of HeLa cells; format: cell-based, human
# Description: Normal fibroblasts from the human skin and lung and HeLa cells were cultivated at low cell density (20-30% confluency). Morphometric measurements were carried out for cell area, dispersion and elongation. Cytoskeleton structures were analyzed by staining the fixed cell preparations with rhodamine falloidin (actin filaments), antibodies against tubulin (microtubules) and vinculin (surface contacts). Mobility of the cells was examined with the help of microvideo camera.
# Hela cells [2] = assay: Transmission of apoptotic signal between inducer and recipient slides; format: cell-based, human; conditions: for apoptosis at slide-recipient: TNF
# Description: HeLa cells were used in these experiments. Cells grown on a glass slide were treated with different apoptosis-inducing agents (tumor necrosis factor (TNF), staurosporine, H2O2) for 3 h. Then the glass slide with cells (inducer) was washed to remove these reagents and placed into Petri plate to come into contact with glass slide (recipient) with cells grown in the absence of any apoptosis-inducing agent. After 16-18 h of subsequent growth and staining the cells with Hoechst 33342 as described above, apoptosis at both glass slides was analyzed.
# Thus the main mediator of apoptosis signal was H2O2.
# [3] = system: respiratory chain of rat liver mitochondria; format: biochemical
# Description: FIG. 5 describes the oxidation of quinols of “MitoQ” and “SkQ1” by respiratory chain of rat liver mitochondria energized with succinate (5 mM) in the presence of 2 μM rotenone. After complete reduction of […] the respiratory chain was blocked with 25 mM malonate and reoxidation rate of “MitoQ” and “SkQ1” was measured. In order to examine whether the test compounds (SkQ1 and MitoQ) can be reduced by the respiratory chain of mitochondria, changes of the ratio between oxidized and reduced forms of test compounds were measured in the presence of respiratory substrates in a medium used for isolation of rat liver mitochondria. The measurements were carried out in the presence of mitochondria (protein concentration 0.2 mg/ml).
# [4] = Transfer across the planar bilayer phospholipid membrane; format: physicochemical; conditions: 50 mM TrisHCl pH 7.4; 10^−7 to 10^−5 M; distributes according to Nernst equation
# Text: The experimental method has been used several times before in the experiments aimed at the exploring of an ability of different ions to penetrate the planar bilayer lipid membrane and is described in details Liberman […]., 1969, Nature, 222, 1076-8. This method includes the use of two chambers filled in with water-based solution and separated by bilayer membrane, also the electrometrical registration of transfer of charged compounds capable of penetration across such membrane from one chamber to another. In our experiment the membrane was made of mixture of […] and diphytanoyl derivative of […] dissolved in decane; both chambers were filled with 50 mM TrisHCl, pH 7.4 containing 10^-7 M SkQ1.
# OXYS rats = assay: Cataract and macular dystrophy in senescence-accelerated OXYS rats; format: in vivo, rat
# Description: The animals were housed in cages (45*35*35 cm) and kept under standard laboratory conditions (at 22±1° C., 60% relative humidity, and natural light), provided with a standard rodent diet (PK-120-1, Ltd. ‘Laboratorsnab’, Russia), and given water ad libitum. At the age of 1.5 months after preliminary pupil dilation with 1% tropicamide ophthalmic the rats were conducted through ophthalmoscopic examination using direct ophthalmoscop “Betta”, Germany. […] We use Vitamin E for a comparison with test antioxidants. Animals received the compounds on a small piece of dried bread before a regular meal, and the control group of animals received the same piece of bread without any compound. After completing the course of antioxidants the animals were retested with ophthalmoscope. To avoid human factor in the evaluation of compound effects the researcher who conducted the ophthalmoscopic examination was not told which of the animals received antioxidants. The lens state was evaluated according to the classification system accepted in clinical practice with grades ranging from 0 to 3: score 0—the lens is clear; score 1—spotted weak cloudiness; score 2—multiple spots of cloudiness and score 3—intense cloudiness of the lens core and nucleus.
# Hela cells [5] = assay: Necrosis after photodynamic treatment (chloromethyl-X-rosamine, green light); format: cell-based, human
# Description: Protection from photodynamic treatment was studied using cultured HeLa cells. Cells were incubated with photosensitizer chloromethyl-X-rosamine (0.5 μM, 15 min) which was then selectively accumulated within mitochondria. Cells were photoirradiated with green light (at maximum absorption for photosensitizer of […]) through the objective of microscope Axiovert 200M (Zeiss, Germany) for 1-2 min and analyzed 5 h later. Necrosis was determined by staining of nuclei with propidium iodide (2 μg/ml, 5 min).
# [6] = system: coronary arteries of the isolated hearts of rats; assay: Isolated perfused rat heart, perfusion pressure during H2O2 introduction; format: in vivo
# Description: It is known that reactive oxygen species (ROS) have regulatory or toxic effects on a cardiac muscle depending on their concentrations. When studying SkQ1 compound its ability to modulate ROS action has been found. Experiments have been carried out in the isolated hearts of rats which were given SkQ1 intravenously or with nutrition (50 μg/kg). The heart was isolated 2 hours after intravenous introduction of the compound, or after 2-week nutritional supplementation. The heart was perfused retrogradely according to a standard procedure by Krebs solution with a constant rate, and perfusion pressure (PP) characterized the tonus of coronary arteries. A spontaneous heart rate and isovolumic pressure in a left ventricular latex balloon were also recorded. These parameters were monitored at 40-minute introduction of 150 mcM H2O2, a standard ROS generator.
# [7] = Oxidation of quinols by superoxide-anion radicals generated in xanthine oxidase/hypoxanthine system; format: biochemical
# Text: In order to compare antioxidant activity of the reduced forms, we measured the oxidation rate of quinols by superoxide-anion radicals generated in xanthine oxidase/hypoxanthine system.
# [8] = Light-dependent inactivation of gramicidin channel in model lipid membrane with phthalocyanine photosensitizer; format: biochemical; conditions: SkQ1 at 1 μM
# [9] = Spontaneous oxidation of reduced (quinol) forms by air oxygen; format: physicochemical; conditions: 20 mM MOPS-KOH, pH=7.6; aerobic
# Description: Stability of the reduced (quinols) forms of SkQ1 and MitoQ under aerobic conditions was examined by analysis of the absolute absorption spectra of these compounds in a range from 240 to 310 nm using double-beam spectrophotometer Pye Unicam SP1100, England. Quinone derivatives were reduced with sodium tetrahydroborate in the medium containing 20 mM MOPS-KOH, pH=7.6. […] The level of reduced quinones was estimated by the size of peak area using the weighing method; absolute absorption value at 267 nm (maximum absorption) was used as a control.
# [10] = OXYS rats age 3 months after oral course
smiles,measurement,setting,value
"CC1=C(C)C(=O)C(CCCCCCCCCC[P+](c2ccccc2)(c2ccccc2)c2ccccc2)=CC1=O.[Br-] [SkQ1, 2,3-dimethyl-1,4-benzoquinon-5-decyl-triphenylphosphonium bromide]",amount of actin filaments,Hela cells [1],increased
same,mean density of filaments,Hela cells [1],not changed
same,"mean area, times higher",Hela cells [1]; same treatment as fibroblasts,2.6 times
same,H2O2 concentration in the medium,"Hela cells [2]; 24 hours after contact, inductor cells preincubated",40 ± 10 nM
same,apoptosis at slide-recipient,Hela cells [2]; preincubation of inducer with 20 nM,17±3%
same,apoptosis at slide-recipient,Hela cells [2]; preincubation of recipient cells,16±4%
same,protective effect on recipient cells,Hela cells [2]; corrected for 12±3% apoptosis from emetine,~100%
same,apoptosis at slide-inducer caused by TNF,Hela cells [2]; inductor cells incubated with 20 nM for 6 days,90±5%
same,H2O2 concentration in the medium,Hela cells [2]; recipient cells preincubated,did not lead to decrease of H2O2 concentration
same,concentration not suppressing mitochondrial respiration,[3],up to 10 μM
same,time compound retains intact under incubation conditions in biological media,[3]; whole experiment,at least tens of minutes
same,penetration of planar bilayer phospholipid membrane,[4],penetrates the planar bilayer phospholipid membrane
same,2nd stage of cataract,OXYS rats; [10],all of them were defined as the 1st stage of cataract
same,2nd stage of macular degeneration,OXYS rats; [10],also were defined as the 1st stage of macular degeneration
same,changes in the macular area of the retina,OXYS rats; [10],38%
same,eyes with lens changes,OXYS rats; OXYS rats age 3 months after oral course from 1.5 to 3 months,46%
same,necrotic cell death,Hela cells [5]; 1 μM added 1 h before photoirradiation,15±5%
same,necrosis from photodynamic treatment,Hela cells [5]; preincubated with 20 nM for 6 days,25±5%
same,PP change at the end of H2O2 introduction,[6]; prolonged consumption,−29±6 mmHg
same,maximal PP decline,[6]; prolonged consumption (2-week nutritional supplementation),−38±5 mmHg
same,maximal PP decline versus initial level before H2O2,[6]; single intravenous introduction,−43±5 mmHg
same,minimal perfusion pressure (PP) level,"[6]; single intravenous introduction 50 μg/kg, heart isolated 2 hours later, 150 mcM H2O2",77±2 mm Hg
same,oxidation rate in the presence of both air oxygen and superoxide radical relative to MitoQ,[7]; FIG. 3a,about two times higher
same,oxidation rate of quinol form by superoxide radical relative to MitoQ,"[7]; oxidation by air oxygen subtracted, FIG. 3b",very much faster than MitoQ
same,light-dependent inactivation of gramicidin,[8],completely prevents
same,autooxidation of the reduced (quinol) form by air oxygen relative to MitoQ,[9],about three-fold lower
